Assays:
[1] = Serum stability test; format: in vitro ADME, human; details: human, diluted human serum (25%), supernatant after centrifugation; 8 h at 37° C.; read-out: Degradation in human serum
Description: Diluted human serum (25%) was centrifuged at 15,000 rpm for 10 min, and the supernatant was collected. A peptide stock solution was diluted into the supernatant to a final concentration of 5 μM and incubated at 37° C. At various time points (0-8 h), 200-μL aliquots were withdrawn and mixed with 50 μL of 15% trichloroacetic acid and 200 μL of acetonitrile. After incubation at 4° C. overnight, the mixture was centrifuged at 15,000 rpm for 10 min in a microcentrifuge, and the supernatant was analyzed by reversed-phase HPLC equipped with an analytical C18 column (Waters). The amount of remaining intact peptide (%, relative that of time zero control) was determined by integrating the area underneath the peptide peak (monitored at 214 nm).

[2] = target: T1, TNFα (Homo sapiens, UniProt P01375); assay: FA-based competition with FITC-labeled C1 for binding to TNFα; details: 2 μM TNFα, 100 nM C1-NNNK(FITC), 0-15 μM competitor
T1 construct: ybbR tag (13 aa) (N); made in house; host or cells: Escherichia coli
Description: (§1) FIG. 6A is a graph showing the competition for binding to TNFα (2 μM) between C1-74-2 (0-15 μM) and C1-NNNK(FITC) (100 nM) as monitored by FA. FIG. 6B is a graph showing binding of infliximab-HRP conjugate to immobilized TNFα in the absence and presence of C1-74-2 (0, 2, or 6 μM).
[formula] where Y is the measured anisotropy at a given TNFα concentration x; L is the bicyclic peptide concentration; Qb/Qf is the correction fact for dye-protein interaction; Amax is the maximum anisotropy when all the peptides are bound to TNFα, while Amin is the minimum anisotropy. Competition experiments were performed by incubating 100 nM Asn-Asn-Asn-Lys(FITC)-labeled anticachexin C1 (Table 1), 2 μM of TNFα, and varying concentrations of unlabeled competitor peptide (0-20 μM) in the above buffer for 2 h. The FA values were plotted against the competitor peptide concentration to determine the IC50 values.

[3] = target: T2, TNFα (infliximab binding) (Homo sapiens, UniProt P01375); assay: Binding of infliximab-HRP conjugate to immobilized TNFα; details: 0, 2 or 6 μM peptide
T2 construct: ybbR tag (13 aa) (N); made in house; host or cells: Escherichia coli
Description: as §1
The four peptides were tested for inhibition of the TNFα-TNFR1 interaction by using the ELISA assay.

[4] = system: TNFα-induced activation of NF-κB; assay: NF-κB luciferase reporter assay in NF-κB reporter (Luc)-HEK293 cells; format: cell-based; details: 6 μM peptide, 5 ng/mL TNFα
Description: NF-κB reporter (Luc)-HEK293 cells 30 (BPS Bioscience, San Diego, Calif.) were seeded at a density of 5,000 cells per well in Greiner white 96-well cell culture microplates in 50 μL of growth medium (DMEM+10% FBS+1% P/S). Cells were incubated overnight at 37° C. in the presence of 5% CO2. TNFα (5 ng/mL) and different concentrations of compound C1-74-2 (0-6 μM) were incubated for 1 h in 5 μL of growth medium (DMEM+5% FBS+1% P/S) at 37° C. in the presence of 5% CO2. The growth medium in the plate was replaced with 50 μL of fresh medium (DMEM+5% FBS+1% P/S). The pre-incubated TNFα and peptide mixture (5 μL) was added into each well, with 5 μL of growth medium only added as the control. The cells were incubated at 37° C. with 5% CO2 for 2 h. Fifty μL of ONE-Step™ Luciferase Assay reagent (BPS Bioscience, San Diego, Calif.) was added into each well. The whole plate was incubated at room temperature for 5 min and the luminescence generated was measured on a Tecan M1000 Pro microplate reader.
WEHI-13VAR cells were treated with TNFα in the presence of increasing concentrations of C1-74-2 (0-20 μM) and the cell lysates were probed with antibodies specific for phosphorylated JNK (p-JNK) as well as total JNK. […]

[5] = target: T3, TNFα-TNFR1 interaction (Homo sapiens, UniProt P01375); assay: ELISA inhibition of TNFα-TNFR1 interaction (immobilized biotinylated TNFα, TNFR1-HRP); format: binding
T3 construct: made in house; host or cells: Escherichia coli (TNFα)
Description: Inhibition of TNFα-TNRF1 interaction by ELISA was carried out as previously described (Lian, W.; et al., supra).
Because of its high-throughput capability, FA analysis had been used to generate all of the SAR data described above. […] To confirm the SAR data obtained by FA analysis, some of the compounds in Table 5 (as well as new compounds) were resynthesized without the Lys(FITC) label and employed a more sensitive ELISA-based assay to determine the IC50 values for inhibition of the TNFα-TNFR1 interaction. Briefly, biotinylated TNFα was immobilized onto a NeutrAvidin-coated surface. TNFR1 conjugated with horseradish peroxidase (HRP) (0.5 nM) was added along with different concentrations of a peptide inhibitor. After washing, the amount of bound TNFR1-HRP was quantitated by ELISA. […] In agreement with the FA results, either extension at the C-terminus of β-Ala with another amino acid (C1-67 to C1-70) or side-chain modification of β-Ala (C1-71 to C1-73) decreased TNFα binding.

T1 sequence (P01375 77-233 limits assumed): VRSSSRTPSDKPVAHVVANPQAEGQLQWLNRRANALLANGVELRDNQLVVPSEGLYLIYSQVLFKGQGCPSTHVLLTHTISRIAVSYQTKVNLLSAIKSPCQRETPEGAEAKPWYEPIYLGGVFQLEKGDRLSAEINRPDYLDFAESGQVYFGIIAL
T2 sequence (P01375 77-233 limits assumed): as above

CC(=O)[C@@H]1CCCN(C(=O)[C@@H](Cc2c[nH]cn2)NC(=O)C(N)C(C)C)C1 (stereo partly drawn) [Compound C1-74-2]
metabolised at 8 h, 5 μM [1]: ~15%
Competition with FITC-labeled C1 for binding to TNFα [2]: competed with FITC-labeled C1 for binding to TNFα
Inhibition of infliximab binding to surface-immobilized TNFα [3]: inhibited the binding of anti-TNFα antibody infliximab to a surface-immobilized TNFα in a concentration-dependent manner
Reduction of TNFα-induced luciferase activity [4]: ~50%
IC50 ([5]; inhibition of TNFα-TNFR1 interaction, unlabeled peptides): 12 ± 2 nM
Improvement of IC50 over C1-74 (fold) ([5]; relative to C1-74): ~6 fold

From patent US10913773B2, “Bicyclic peptidyl inhibitor of tumor necrosis factor-alpha” (Ohio State Innovation Foundation, priority 2016, dated 2021)
